The target of test [1] is T1, human NOP receptor (Homo sapiens, UniProt P41146).
T1 construct: expressed in transfected cells; host or cells: CHO cells stably coexpressing the receptor and chimeric Gαqi5
Nature of the test: Calcium mobilization, NOP receptor. Format: cell-based. The following applies: for Emax: mean ± SEM of at least three experiments in duplicate, SEM; for NOP pEC50 (CL95%): CHO cells coexpressing human NOP and Gαqi5, Fluo-4 AM, 37 °C, mean of at least three experiments in duplicate, CL95% in brackets; for NOP/mu CR (concentration ratio): calcium mobilization, NOP versus mu. Here is the method: CHO cells stably coexpressing the human NOP or kappa or the mu receptor and the C-terminally modified Gαqi5 and CHO cells coexpressing the delta receptor and the GαqG66Di5 protein were generated and cultured as described previously.[45],[46] Cells were maintained in Dulbecco’s modified Eagle’s medium/nutrient mixture F-12 (DEMEM/F-12) supplemented with 10% FBS, 100 U/mL penicillin and 100 μg/mL streptomycin, 100 μg/mL hygromicin B, and 200 μg/mL G418 and cultured at 37 °C in 5% CO2 humidified air. Cells were seeded at a density of 50,000 cells/well into 96-well black, clear-bottom plates. The following day, the cells were incubated with Hanks’ balanced salt solution (HBSS) supplemented with 2.5 mM probenecid, 3 μM of the calcium-sensitive fluorescent dye Fluo-4 AM, and 0.01% pluronic acid for 30 min at 37 °C. After that time, the loading solution was aspirated and 100 μL/well of HBSS supplemented with 20 mM HEPES, 2.5 mM probenecid, and 500 μM brilliant black was added. Serial dilutions were carried out in HBSS/HEPES (20 mM) buffer (containing 0.02% BSA fraction V). After placing both plates (cell culture and master plate) into the fluorometric imaging plate reader FlexStation II (Molecular Devices, Sunnyvale, CA), fluorescence changes were measured. On-line additions were carried out in a volume of 50 μL/well. To facilitate drug diffusion into the wells, the present studies were performed at 37 °C. Maximum change in fluorescence, expressed as percent over the baseline fluorescence, was used to determine agonist response.
The pharmacological terminology adopted in this paper is consistent with IUPHAR recommendations.[59] All data are expressed as the mean ± standard error of the mean (SEM) of at least three experiments performed in duplicate. […] Concentration-response curves to agonists were fitted to the classical four-parameter logistic nonlinear regression model:
Effect = Baseline + (Emax – Baseline)/(1 + 10^(LogEC50 – Log[compound]) × Hillslope). Curve fitting was performed using PRISM 6.0 (GraphPad Software Inc., San Diego).

Test [2] concerns the target T2, human mu receptor (Homo sapiens, UniProt P35372).
T2 construct: expressed in transfected cells; host or cells: CHO cells stably coexpressing the receptor and chimeric Gαqi5
Nature of the test: Calcium mobilization, mu opioid receptor. Format: cell-based. Particulars: for Emax / mu Emax ± S.E.M. / activation at 10 µM: percent over the baseline fluorescence; for Emax / mu Emax ± S.E.M.: mean ± SEM of at least three experiments in duplicate; for Emax / activation at 10 µM: SEM; for mu pEC50 (CL95%): CHO cells coexpressing human mu receptor and Gαqi5, Fluo-4 AM, 37 °C, mean of at least three experiments in duplicate, CL95% in brackets; for pEC50_mu: molecular formula strings CSV, repeats calcium mobilization values of Tables 1-3; for activation at 10 µM: mean ± SEM.

[3] abbreviates: read-out: NOP Emax ± S.E.M., Table 3 series, percent over the baseline fluorescence.
Where [4] appears, read: read-out: mu Emax ± S.E.M., Table 3 series.
The mark [5] stands for this setting: read-out: NOP Emax ± S.E.M., Table 2 series, percent over the baseline fluorescence.
The mark [6] stands for this setting: read-out: mu effect at 10 μM (crc incomplete), Table 2 series.
The mark [7] stands for this setting: read-out: NOP Emax ± S.E.M., Table 1 series, maximum change in fluorescence as percent over the baseline fluorescence.
Setting [8] is: read-out: mu effect at 10 μM (crc incomplete), Table 1 series.

Like-named read-outs stand apart in the source and are kept apart here. Where a SMILES comes first, the peptide text is derived from it. Where no end group is shown, it is not given here. [ ]: non-standard residue; d: D form. 1Nal = N[C@@H](Cc1cccc2ccccc12)C(=O)O; Dmt = Cc1cc(O)cc(C)c1C[C@H](N)C(=O)O; Dap = NC[C@H](N)C(=O)O

T1 sequence (P41146 whole entry): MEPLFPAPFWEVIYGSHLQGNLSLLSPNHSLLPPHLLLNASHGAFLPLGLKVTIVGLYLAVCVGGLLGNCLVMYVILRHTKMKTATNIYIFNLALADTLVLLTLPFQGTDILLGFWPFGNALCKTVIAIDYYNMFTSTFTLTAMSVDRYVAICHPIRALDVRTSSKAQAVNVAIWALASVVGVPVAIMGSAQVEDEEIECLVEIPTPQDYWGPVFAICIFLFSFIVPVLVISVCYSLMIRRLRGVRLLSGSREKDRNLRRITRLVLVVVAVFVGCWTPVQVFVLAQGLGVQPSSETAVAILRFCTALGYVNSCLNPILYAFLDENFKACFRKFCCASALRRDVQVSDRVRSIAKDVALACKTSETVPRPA
T2 sequence (P35372 whole entry): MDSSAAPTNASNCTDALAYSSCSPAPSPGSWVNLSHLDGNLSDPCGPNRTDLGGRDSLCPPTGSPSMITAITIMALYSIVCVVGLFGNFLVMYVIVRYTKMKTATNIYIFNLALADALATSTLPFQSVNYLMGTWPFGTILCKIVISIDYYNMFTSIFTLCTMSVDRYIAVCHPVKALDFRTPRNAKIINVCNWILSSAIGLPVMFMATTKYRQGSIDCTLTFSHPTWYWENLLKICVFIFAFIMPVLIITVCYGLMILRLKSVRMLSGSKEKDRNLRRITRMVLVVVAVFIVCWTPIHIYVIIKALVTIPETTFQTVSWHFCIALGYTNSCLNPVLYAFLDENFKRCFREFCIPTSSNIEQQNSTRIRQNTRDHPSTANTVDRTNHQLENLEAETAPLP

In the case of `Cc1cc(O)cc(C)c1C[C@H](N)C(=O)NCC(=O)NCC(=O)N[C@@H](Cc1ccccc1)C(=O)N[C@@H](Cc1ccc(O)cc1)C(=O)NCC(=O)N[C@@H](C)C(=O)N[C@@H](CCCNC(=N)N)C(=O)N[C@@H](CCCCN)C(=O)N[C@@H](CO)C(=O)N[C@@H](C)C(=O)N[C@@H](CCCNC(=N)N)C(=O)N[C@@H](CCCCN)C(N)=O` [Compound 30, [Dmt^1,Tyr^5]N/OFQ(1-13)-NH2] (H-[Dmt]GGFYGARKSARK-NH2), the Emax in test [1] (setting [3]) is 304 ± 21%; in test [2] (setting [4]), 410 ± 25%.

With `C[C@H](NC(=O)CNC(=O)[C@@H](NC(=O)[C@H](Cc1ccccc1)NC(=O)CNC(=O)CNC(=O)[C@@H](N)Cc1ccccc1)[C@@H](C)O)C(=O)N[C@@H](CCCNC(=N)N)C(=O)N[C@@H](CCCCN)C(=O)N[C@@H](CO)C(=O)N[C@@H](C)C(=O)N[C@@H](CCCNC(=N)N)C(=O)N[C@@H](CCCCN)C(N)=O` [Compound 1, N/OFQ(1-13)NH2, reference compound], the “mu pEC50 (CL95%)” value in test [2] (Table 1 series), in test [2] (Table 2 series) and in test [2] (Table 3 series) was “inactive” each time. For the same molecule, the “mu Emax ± S.E.M.” value in test [2] (Table 1 series), in test [2] (Table 2 series) and in test [2] (Table 3 series) was “inactive” in each case. Further, the pEC50_mu result in test [2] is “inactive”.

`C[C@H](NC(=O)CNC(=O)[C@H](Cc1cccc2ccccc12)NC(=O)[C@H](Cc1ccccc1)NC(=O)CNC(=O)CNC(=O)[C@@H](N)Cc1ccc(O)cc1)C(=O)N[C@@H](CCCNC(=N)N)C(=O)N[C@@H](CCCCN)C(=O)N[C@@H](CO)C(=O)N[C@@H](C)C(=O)N[C@@H](CCCNC(=N)N)C(=O)N[C@@H](CCCCN)C(N)=O` [Compound 25, [Tyr^1,1Nal^5]N/OFQ(1-13)-NH2] (H-YGGF[1Nal]GARKSARK-NH2): in test [1] (Table 2 series), the “NOP pEC50 (CL95%)” value is on record as 7.17 (6.82–7.52) and the “NOP/mu CR (concentration ratio)” value is on record as 0.08. The Emax in test [1] (setting [5]) was determined as 245 ± 16%. For the same molecule, the “mu pEC50 (CL95%)” value in test [2] (Table 2 series) is 6.08 (5.67–6.49). Moreover, in test [2] (read-out: mu Emax ± S.E.M., Table 2 series), the Emax came to 319 ± 31%.

With “YGGFWGARKSARK-NH2 [Compound 17, [Tyr^1,Trp^5]N/OFQ(1-13)-NH2]”, in test [1] (Table 2 series), the “NOP pEC50 (CL95%)” value is listed as 7.27 (7.19–7.35) and the “NOP/mu CR (concentration ratio)” value worked out at 0.07. Moreover, the Emax in test [1] (setting [5]) is 288 ± 28%. Also, in test [2] (Table 2 series), the “mu pEC50 (CL95%)” value is reported as “crc incomplete; 10 μM: 193 ± 31”. Besides, in test [2], the pEC50_mu result is listed as “crc incomplete”. The activation at 10 µM in test [2] (setting [6]) is 193 ± 31%.

`Cc1cc(O)cc(C)c1C[C@H](N)C(=O)NCC(=O)NCC(=O)N[C@@H](Cc1ccccc1)C(=O)N[C@@H](Cc1cccc2ccccc12)C(=O)NCC(=O)N[C@@H](C)C(=O)N[C@@H](CCCNC(=N)N)C(=O)N[C@@H](CCCCN)C(=O)N[C@@H](CO)C(=O)N[C@@H](C)C(=O)N[C@@H](CCCNC(=N)N)C(=O)N[C@@H](CCCCN)C(N)=O` [Compound 33, [Dmt^1,1Nal^5]N/OFQ(1-13)-NH2] (H-[Dmt]GGF[1Nal]GARKSARK-NH2): the Emax in test [1] (setting [3]) came to 286 ± 19%; in test [2] (setting [4]) it was 349 ± 20%.

Take “YGGFK(Ac)GARKSARK-NH2 [Compound 6, [Tyr^1,Lys(Ac)^5]N/OFQ(1-13)-NH2]”: in test [1] (Table 1 series, FlexStation II), the “NOP pEC50 (CL95%)” value was 8.55 (7.88–9.22). The “NOP/mu CR (concentration ratio)” value in test [1] (Table 1 series) came to 0.003. Further, the Emax in test [1] (setting [7]) is 370 ± 16%. For the same molecule, in test [2] (Table 1 series), the “mu pEC50 (CL95%)” value is “crc incomplete; 10 μM: 161 ± 31”. Moreover, the pEC50_mu entry in test [2] is “crc incomplete”. Also, in test [2] (setting [8]), the activation at 10 µM is 161 ± 31%.

On to “YGGFVGARKSARK-NH2 [Compound 5, [Tyr^1,Val^5]N/OFQ(1-13)-NH2]”, for which the “NOP pEC50 (CL95%)” value in test [1] (Table 1 series, FlexStation II) is listed as 8.70 (8.53–8.87). Besides, in test [1] (Table 1 series), the “NOP/mu CR (concentration ratio)” value turned out to be 0.002. Further, the Emax in test [1] (setting [7]) came out at 334 ± 19%. The “mu pEC50 (CL95%)” value in test [2] (Table 1 series) is recorded as “crc incomplete; 10 μM: 254 ± 19”. In addition, the pEC50_mu result in test [2] is “crc incomplete”. Besides, the activation at 10 µM in test [2] (setting [8]) was 254 ± 19%.

Consider `COc1ccc(C[C@H](NC(=O)[C@H](Cc2ccccc2)NC(=O)CNC(=O)CNC(=O)[C@@H](N)Cc2ccc(O)cc2)C(=O)NCC(=O)N[C@@H](C)C(=O)N[C@@H](CCCNC(=N)N)C(=O)N[C@@H](CCCCN)C(=O)N[C@@H](CO)C(=O)N[C@@H](C)C(=O)N[C@@H](CCCNC(=N)N)C(=O)N[C@@H](CCCCN)C(N)=O)cc1` [Compound 20, [Tyr^1,p(OCH3)Phe^5]N/OFQ(1-13)-NH2] (H-YGGFY(Me)GARKSARK-NH2), for which, in test [1] (setting [5]), the Emax is 246 ± 18%. In test [2] (Table 2 series), the “mu pEC50 (CL95%)” value was “crc incomplete; 10 μM: 221 ± 49”. The pEC50_mu result in test [2] is reported as “crc incomplete”. Further, the activation at 10 µM in test [2] (setting [6]) came out at 221 ± 49%.

As to `C[C@H](NC(=O)CNC(=O)[C@H](CN)NC(=O)[C@H](Cc1ccccc1)NC(=O)CNC(=O)CNC(=O)[C@@H](N)Cc1ccc(O)cc1)C(=O)N[C@@H](CCCNC(=N)N)C(=O)N[C@@H](CCCCN)C(=O)N[C@@H](CO)C(=O)N[C@@H](C)C(=O)N[C@@H](CCCNC(=N)N)C(=O)N[C@@H](CCCCN)C(N)=O` [Compound 9, [Tyr^1,Dap^5]N/OFQ(1-13)-NH2] (H-YGGF[Dap]GARKSARK-NH2), the “NOP pEC50 (CL95%)” value in test [1] (Table 1 series, FlexStation II) was 7.20 (6.95–7.45). Further, the “NOP/mu CR (concentration ratio)” value in test [1] (Table 1 series) is given as 0.06. The Emax in test [1] (setting [7]) came out at 367 ± 9%. Moreover, the “mu pEC50 (CL95%)” value in test [2] (Table 1 series) is reported as “crc incomplete; 10 μM: 144 ± 44”. Further, the pEC50_mu entry in test [2] is given as “crc incomplete”. Moreover, the activation at 10 µM in test [2] (setting [8]) was 144 ± 44%.

Regarding “YGGFLGARKSARK-NH2 [Compound 11, [Tyr^1,Leu^5]N/OFQ(1-13)-NH2]”, the “NOP pEC50 (CL95%)” value in test [1] (Table 1 series, FlexStation II) is 8.03 (7.46–8.60). Moreover, the “NOP/mu CR (concentration ratio)” value in test [1] (Table 1 series) is reported as 0.01. The Emax is 339 ± 24% in test [1] (setting [7]) and 339 ± 25% in test [2] (read-out: mu Emax ± S.E.M, Table 1 series). Also, in test [2] (Table 1 series), the “mu pEC50 (CL95%)” value was 6.08 (5.95–6.21).

On to “YGGFKGARKSARK-NH2 [Compound 8, [Tyr^1,Lys^5]N/OFQ(1-13)-NH2]”, for which the “NOP pEC50 (CL95%)” value in test [1] (Table 1 series, FlexStation II) is 7.26 (6.74–7.78). For the same molecule, the “NOP/mu CR (concentration ratio)” value in test [1] (Table 1 series) was 0.05. Further, the Emax in test [1] (setting [7]) was 366 ± 6%. The “mu pEC50 (CL95%)” value in test [2] (Table 1 series) is “crc incomplete; 10 μM: 113 ± 35”. For the same molecule, the pEC50_mu entry in test [2] is “crc incomplete”. The activation at 10 µM in test [2] (setting [8]) came out at 113 ± 35%.

For the molecule “YGGFTGARKSARK-NH2 [Compound 3, [Tyr^1]N/OFQ(1-13)-NH2, reference compound]”, the “NOP pEC50 (CL95%)” value in test [1] (Table 1 series, FlexStation II) is recorded as 9.23 (9.07–9.39). The “NOP/mu CR (concentration ratio)” value in test [1] (Table 1 series) was 0.001; in test [1] (Table 3 series), less than 0.001. Moreover, the Emax in test [1] (setting [7]) came out at 380 ± 11%; in test [1] (setting [5]), 266 ± 14%; in test [1] (setting [3]) it was 236 ± 13%; in test [2] (setting [4]) it was 251 ± 34%. In addition, the “mu pEC50 (CL95%)” value is “crc incomplete; 10 μM: 197 ± 69” in test [2] (Table 1 series) and “crc incomplete; 10 μM: 217 ± 29” in test [2] (Table 2 series). In test [2], the pEC50_mu entry was “crc incomplete”. The results for the activation at 10 µM in test [2] (setting [8]) and in test [2] (setting [6]) were 197 ± 69% and 217 ± 29%, respectively.

These data come from paper PMC8279409, “Novel Mixed NOP/Opioid Receptor Peptide Agonists” (Journal of Medicinal Chemistry, 2021).
